Data on 7 cell lines can be found in the supplement of paper PMC10307832.

What all share (assay): relative viability (nuclei count vs DMSO), 5 days (fraction); higher = more cells survive
Compound in the test “IPA-3 + AZD7762”: C1=CC=C2C(=C1)C=CC(=C2SSC3=C(C=CC4=CC=CC=C43)O)O [IPA-3] + NC(=O)Nc1cc(-c2cccc(F)c2)sc1C(=O)N[C@H]1CCCNC1 [AZD7762] (partner 0.2 µM)
Summed up:
(§1)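 For relative viability, nuclei counts in treated wells were divided by those in vehicle wells. Lung cancer cell lines had been pin-tool dosed in 1536-well plates the day after seeding and cultured for 5 days, then fixed and stained in one step (final 0.05% Triton X-100, 1% formaldehyde, 1 ug/ml Hoechst) and imaged at 4×. Doses were one drug alone or a fixed anchor-drug dose plus five library-drug doses (not always all listed) in √10 steps, and values are duplicate-plate medians.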

Compound in the test “IPA-3 + Lapatinib”: C1=CC=C2C(=C1)C=CC(=C2SSC3=C(C=CC4=CC=CC=C43)O)O [IPA-3] + CS(=O)(=O)CCNCc1ccc(-c2ccc3ncnc(Nc4ccc(OCc5cccc(F)c5)c(Cl)c4)c3c2)o1 [Lapatinib] (partner 2 µM)
An outline of the steps:
as §1

Compound in the test “RAF265 + Olaparib”: Cn1c(Nc2ccc(C(F)(F)F)cc2)nc2cc(Oc3ccnc(-c4ncc(C(F)(F)F)[nH]4)c3)ccc21 [RAF265] + O=C(c1cc(Cc2n[nH]c(=O)c3ccccc23)ccc1F)N1CCN(C(=O)C2CC2)CC1 [Olaparib] (partner 8 µM)
An outline of the steps:
as §1

Compound in the test “RAF265 + Trametinib”: Cn1c(Nc2ccc(C(F)(F)F)cc2)nc2cc(Oc3ccnc(-c4ncc(C(F)(F)F)[nH]4)c3)ccc21 [RAF265] + CC(=O)Nc1cccc(-n2c(=O)n(C3CC3)c(=O)c3c(Nc4ccc(I)cc4F)n(C)c(=O)c(C)c32)c1 [Trametinib] (partner 0.02 µM)
An outline of the steps:
as §1

On to HOP-62, for which the relative viability was determined as 0.787 in the test with IPA-3 + AZD7762 (first compound 0.2 µM); 0.828 in the test with IPA-3 + AZD7762 (first compound 0.6325 µM); 0.657 with IPA-3 + AZD7762 (first compound 2 µM); 0.606 in the test with IPA-3 + AZD7762 (first compound 6.325 µM); 0.661 with IPA-3 + AZD7762 (first compound 20 µM); 1.2 in the test with IPA-3 + Lapatinib (first compound 0.2 µM). Besides, the relative viability is 0.935 with IPA-3 + Lapatinib (first compound 0.6325 µM); 0.918 in the test with IPA-3 + Lapatinib (first compound 2 µM); 1.13 with IPA-3 + Lapatinib (first compound 6.325 µM); 1.16 with IPA-3 + Lapatinib (first compound 20 µM); 0.461 with RAF265 + Olaparib (first compound 0.01 µM); 0.448 with RAF265 + Olaparib (first compound 0.03162 µM). For the same cell line, the relative viability in the test with RAF265 + Olaparib (first compound 0.1 µM) was determined as 0.439; with RAF265 + Olaparib (first compound 0.3162 µM), 0.479; with RAF265 + Olaparib (first compound 1 µM), 0.268; with RAF265 + Trametinib (first compound 0.01 µM), 0.468; in the test with RAF265 + Trametinib (first compound 0.03162 µM), 0.404; with RAF265 + Trametinib (first compound 0.1 µM), 0.406. The relative viability with RAF265 + Trametinib (first compound 0.3162 µM) turned out to be 0.379; in the test with RAF265 + Trametinib (first compound 1 µM) it was 0.218.

Consider LC-2-ad, for which the relative viability with IPA-3 + AZD7762 (first compound 0.2 µM) is 0.896; with IPA-3 + AZD7762 (first compound 0.6325 µM) it was 0.873; with IPA-3 + AZD7762 (first compound 2 µM), 0.899; with IPA-3 + AZD7762 (first compound 6.325 µM) it was 0.897; in the test with IPA-3 + AZD7762 (first compound 20 µM) it was 0.96; with IPA-3 + Lapatinib (first compound 0.2 µM), 1.04. For the same cell line, the relative viability with IPA-3 + Lapatinib (first compound 0.6325 µM) was 1; with IPA-3 + Lapatinib (first compound 2 µM), 1.04; with IPA-3 + Lapatinib (first compound 6.325 µM) it was 0.961; with IPA-3 + Lapatinib (first compound 20 µM), 1.09; with RAF265 + Olaparib (first compound 0.01 µM) it was 0.696; with RAF265 + Olaparib (first compound 0.03162 µM), 0.769. Moreover, the relative viability with RAF265 + Olaparib (first compound 0.1 µM) came out at 0.921; in the test with RAF265 + Olaparib (first compound 0.3162 µM), 0.904; in the test with RAF265 + Olaparib (first compound 1 µM), 0.636; with RAF265 + Trametinib (first compound 0.01 µM), 0.931; with RAF265 + Trametinib (first compound 0.03162 µM) it was 0.958; in the test with RAF265 + Trametinib (first compound 0.1 µM), 1.01. For the same cell line, the relative viability with RAF265 + Trametinib (first compound 0.3162 µM) came out at 0.839; with RAF265 + Trametinib (first compound 1 µM), 0.432.

On to LCLC-97TM1, for which the relative viability with IPA-3 + AZD7762 (first compound 0.2 µM) was 0.356; with IPA-3 + AZD7762 (first compound 0.6325 µM), 0.205; with IPA-3 + AZD7762 (first compound 2 µM), 0.307; with IPA-3 + AZD7762 (first compound 6.325 µM), 0.251; in the test with IPA-3 + AZD7762 (first compound 20 µM) it was 0.247; in the test with IPA-3 + Lapatinib (first compound 0.2 µM), 1.14. Besides, the relative viability with IPA-3 + Lapatinib (first compound 0.6325 µM) is 1.03; with IPA-3 + Lapatinib (first compound 2 µM), 1.13; with IPA-3 + Lapatinib (first compound 6.325 µM), 0.938; with IPA-3 + Lapatinib (first compound 20 µM), 0.937; with RAF265 + Olaparib (first compound 0.01 µM), 0.363; with RAF265 + Olaparib (first compound 0.03162 µM), 0.299. For the same cell line, the relative viability with RAF265 + Olaparib (first compound 0.1 µM) is 0.237; with RAF265 + Olaparib (first compound 0.3162 µM) it was 0.22; with RAF265 + Olaparib (first compound 1 µM), 0.109; with RAF265 + Trametinib (first compound 0.01 µM) it was 0.225; with RAF265 + Trametinib (first compound 0.03162 µM), 0.151; with RAF265 + Trametinib (first compound 0.1 µM), 0.149. The figures for the relative viability in the test with RAF265 + Trametinib (first compound 0.3162 µM) and in the test with RAF265 + Trametinib (first compound 1 µM) were 0.16 and 0.0901, respectively.

For the cell line LK-2, the relative viability with IPA-3 + AZD7762 (first compound 0.2 µM) was determined as 0.456; in the test with IPA-3 + AZD7762 (first compound 0.6325 µM), 0.394; with IPA-3 + AZD7762 (first compound 2 µM), 0.355; with IPA-3 + AZD7762 (first compound 6.325 µM), 0.672; in the test with IPA-3 + AZD7762 (first compound 20 µM), 0.397; in the test with IPA-3 + Lapatinib (first compound 0.2 µM), 1.13. Moreover, the relative viability with IPA-3 + Lapatinib (first compound 0.6325 µM) came to 0.877; with IPA-3 + Lapatinib (first compound 2 µM), 0.959; with IPA-3 + Lapatinib (first compound 6.325 µM), 0.9; with IPA-3 + Lapatinib (first compound 20 µM), 0.821; with RAF265 + Olaparib (first compound 0.01 µM), 0.794; with RAF265 + Olaparib (first compound 0.03162 µM), 0.751. Also, the relative viability with RAF265 + Olaparib (first compound 0.1 µM) amounted to 0.769; with RAF265 + Olaparib (first compound 0.3162 µM), 0.668; with RAF265 + Olaparib (first compound 1 µM) it was 0.512; with RAF265 + Trametinib (first compound 0.01 µM), 0.721; in the test with RAF265 + Trametinib (first compound 0.03162 µM) it was 0.628; in the test with RAF265 + Trametinib (first compound 0.1 µM), 0.787. In addition, the relative viability with RAF265 + Trametinib (first compound 0.3162 µM) turned out to be 0.799; with RAF265 + Trametinib (first compound 1 µM) it was 0.53.

Turning to LOU-NH91, the relative viability worked out at 0.8 in the test with IPA-3 + AZD7762 (first compound 0.2 µM); 0.747 with IPA-3 + AZD7762 (first compound 0.6325 µM); 0.799 in the test with IPA-3 + AZD7762 (first compound 2 µM); 0.76 in the test with IPA-3 + AZD7762 (first compound 6.325 µM); 0.788 with IPA-3 + AZD7762 (first compound 20 µM); 0.745 with IPA-3 + Lapatinib (first compound 0.2 µM). The relative viability with IPA-3 + Lapatinib (first compound 0.6325 µM) turned out to be 0.799; with IPA-3 + Lapatinib (first compound 2 µM), 0.74; with IPA-3 + Lapatinib (first compound 6.325 µM), 0.77; with IPA-3 + Lapatinib (first compound 20 µM) it was 0.789; in the test with RAF265 + Olaparib (first compound 0.01 µM) it was 1.02; with RAF265 + Olaparib (first compound 0.03162 µM), 0.831. Moreover, the relative viability with RAF265 + Olaparib (first compound 0.1 µM) was determined as 0.9; with RAF265 + Olaparib (first compound 0.3162 µM) it was 0.675; with RAF265 + Olaparib (first compound 1 µM), 0.737; with RAF265 + Trametinib (first compound 0.01 µM), 0.837; with RAF265 + Trametinib (first compound 0.03162 µM), 0.756; with RAF265 + Trametinib (first compound 0.1 µM), 0.717. Further, the relative viability with RAF265 + Trametinib (first compound 0.3162 µM) is 0.71; with RAF265 + Trametinib (first compound 1 µM) it was 0.636.

LU99A: the relative viability with IPA-3 + AZD7762 (first compound 0.2 µM) is 0.403; with IPA-3 + AZD7762 (first compound 0.6325 µM) it was 0.318; in the test with IPA-3 + AZD7762 (first compound 2 µM), 0.28; with IPA-3 + AZD7762 (first compound 6.325 µM) it was 0.365; in the test with IPA-3 + AZD7762 (first compound 20 µM), 0.309; with IPA-3 + Lapatinib (first compound 0.2 µM), 0.934. Moreover, the relative viability came out at 0.95 in the test with IPA-3 + Lapatinib (first compound 0.6325 µM); 1.05 with IPA-3 + Lapatinib (first compound 2 µM); 0.922 in the test with IPA-3 + Lapatinib (first compound 6.325 µM); 0.943 in the test with IPA-3 + Lapatinib (first compound 20 µM); 0.268 with RAF265 + Olaparib (first compound 0.01 µM); 0.283 with RAF265 + Olaparib (first compound 0.03162 µM). Also, the relative viability turned out to be 0.226 in the test with RAF265 + Olaparib (first compound 0.1 µM); 0.185 with RAF265 + Olaparib (first compound 0.3162 µM); 0.152 with RAF265 + Olaparib (first compound 1 µM); 0.551 with RAF265 + Trametinib (first compound 0.01 µM); 0.469 with RAF265 + Trametinib (first compound 0.03162 µM); 0.314 in the test with RAF265 + Trametinib (first compound 0.1 µM). The relative viability with RAF265 + Trametinib (first compound 0.3162 µM) was determined as 0.288; with RAF265 + Trametinib (first compound 1 µM) it was 0.21.

For LXF-289, the relative viability was determined as 1.22 with IPA-3 + AZD7762 (first compound 0.2 µM); 1.01 with IPA-3 + AZD7762 (first compound 0.6325 µM); 1.17 with IPA-3 + AZD7762 (first compound 2 µM); 1.25 with IPA-3 + AZD7762 (first compound 6.325 µM); 1.22 in the test with IPA-3 + AZD7762 (first compound 20 µM); 0.976 with IPA-3 + Lapatinib (first compound 0.2 µM). The relative viability with IPA-3 + Lapatinib (first compound 0.6325 µM) came out at 0.869; with IPA-3 + Lapatinib (first compound 2 µM) it was 0.973; with IPA-3 + Lapatinib (first compound 6.325 µM), 0.941; in the test with IPA-3 + Lapatinib (first compound 20 µM), 0.931; with RAF265 + Olaparib (first compound 0.01 µM) it was 1.08; with RAF265 + Olaparib (first compound 0.03162 µM) it was 1.06. In addition, the relative viability with RAF265 + Olaparib (first compound 0.1 µM) is 0.998; in the test with RAF265 + Olaparib (first compound 0.3162 µM), 0.748; with RAF265 + Olaparib (first compound 1 µM), 0.551; with RAF265 + Trametinib (first compound 0.01 µM), 0.667; with RAF265 + Trametinib (first compound 0.03162 µM), 0.692; in the test with RAF265 + Trametinib (first compound 0.1 µM) it was 0.551. For the same cell line, the relative viability in the test with RAF265 + Trametinib (first compound 0.3162 µM) was 0.488; in the test with RAF265 + Trametinib (first compound 1 µM) it was 0.339.
